{
  "source": "ChEMBL document CHEMBL3632553",
  "about": "“New fluorinated agonists for targeting the sphingosin-1-phosphate receptor 1 (S1P(1))” (2015)",
  "key": {"[1]": {"biological_target": "Sphingosine 1-phosphate receptor 1 (Homo sapiens) (UniProt P21453)", "sequence (P21453 whole entry)": "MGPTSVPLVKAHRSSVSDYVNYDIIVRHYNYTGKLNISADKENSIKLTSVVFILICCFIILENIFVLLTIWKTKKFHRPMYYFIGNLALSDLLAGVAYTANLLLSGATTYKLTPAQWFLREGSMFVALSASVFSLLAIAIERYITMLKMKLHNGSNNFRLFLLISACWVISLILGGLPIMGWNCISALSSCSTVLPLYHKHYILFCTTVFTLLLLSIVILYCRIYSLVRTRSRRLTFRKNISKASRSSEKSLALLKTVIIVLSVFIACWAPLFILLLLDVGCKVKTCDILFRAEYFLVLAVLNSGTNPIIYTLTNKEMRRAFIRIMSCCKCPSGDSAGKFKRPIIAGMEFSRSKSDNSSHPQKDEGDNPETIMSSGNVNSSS", "assay": "Agonist activity at human sphingosin-1-phosphate receptor 1 expressed in CHO cells assessed as phosphorylation status of p44/42 MAPK after 10 mins by Western blotting", "format": "cell-based"}, "[2]": {"biological_target": "Sphingosine 1-phosphate receptor 1 (Homo sapiens) (UniProt P21453)", "assay": "Agonist activity at human sphingosin-1-phosphate receptor 1 expressed in CHO cells assessed as phosphorylation status of p44/42 MAPK after 5 mins by Western blotting", "format": "cell-based"}, "[3]": {"biological_target": "Sphingosine 1-phosphate receptor 1 (Homo sapiens) (UniProt P21453)", "assay": "Agonist activity at human sphingosin-1-phosphate receptor 1 expressed in CHO cells assessed as phosphorylation status of p44/42 MAPK after 2.5 mins by Western blotting", "format": "cell-based"}, "[4]": {"test_system": "Mus musculus", "assay": "Immunosuppressive activity in mouse assessed as reduction of B-cells level in peripheral blood assessed per 10^6 cells at 1.25 mg/kg, ip after 24 hrs by flow cytometry (reference value: 4.72 +/- 0.53 ml)", "format": "functional"}, "[5]": {"test_system": "Mus musculus", "assay": "Immunosuppressive activity in mouse assessed as reduction of CD4+ level in peripheral blood assessed per 10^6 cells at 1.25 mg/kg, ip after 24 hrs by flow cytometry (reference value: 0.73 +/- 0.07 ml)", "format": "functional"}, "[6]": {"test_system": "Mus musculus", "assay": "Immunosuppressive activity in mouse assessed as reduction of WBC level in peripheral blood assessed per 10^6 cells at 1.25 mg/kg, ip after 24 hrs by flow cytometry (reference value: 8.94 +/- 0.59 ml)", "format": "functional"}, "[7]": {"test_system": "Mus musculus", "assay": "Immunosuppressive activity in mouse assessed as induction of lymphopenia at 1.25 mg/kg, ip after 24 hrs by flow cytometry", "format": "functional"}, "[8]": {"test_system": "Mus musculus", "assay": "Immunosuppressive activity in mouse assessed as reduction of CD8+ level in peripheral blood assessed per 10^6 cells at 1.25 mg/kg, ip after 24 hrs by flow cytometry (reference value: 0.48 +/- 0.05 ml)", "format": "functional"}},
  "note": "Activity calls are given as the source filed them. The rule behind the calls is not given here.",
  "data": [
    {"smiles": "NC(CO)(CO)CCCCCCCCCCc1c(F)c(F)c(F)c(F)c1F", "values": [
      {"measurement": "Activity", "setting": "[1]", "value": "Active"},
      {"measurement": "Activity", "setting": "[2]", "value": "Active"},
      {"measurement": "Activity", "setting": "[3]", "value": "Active"}
    ]},
    {"smiles": "CCCCCCCCc1ccc(CCC(N)(CO)CO)cc1", "note": "[FINGOLIMOD]", "values": [
      {"measurement": "cell count", "setting": "[4]", "value": "0.61 10^6 cells/mL"},
      {"measurement": "cell count", "setting": "[5]", "value": "0.02 10^6 cells/mL"},
      {"measurement": "cell count", "setting": "[6]", "value": "3.69 10^6 cells/mL"},
      {"measurement": "Activity", "setting": "[7]", "value": 97, "unit": "%"},
      {"measurement": "cell count", "setting": "[8]", "value": "0.04 10^6 cells/mL"}
    ]},
    {"smiles": "NC(CO)(CO)CCCCCCCCCCc1ccc(C(F)(F)F)cc1", "values": [
      {"measurement": "Activity", "setting": "[1]", "value": "Active"},
      {"measurement": "Activity", "setting": "[2]", "value": "Active"},
      {"measurement": "Activity", "setting": "[3]", "value": "Active"}
    ]},
    {"smiles": "NC(CO)(CO)CCCCCCCCCCc1cccc(S(F)(F)(F)(F)F)c1", "values": [
      {"measurement": "Activity", "setting": "[1]", "value": "Active"},
      {"measurement": "Activity", "setting": "[2]", "value": "Active"},
      {"measurement": "Activity", "setting": "[3]", "value": "Active"}
    ]},
    {"smiles": "NC(CO)(CO)CCCCCCCCCCCCCCC(F)F", "values": [
      {"measurement": "Activity", "setting": "[1]", "value": "Active"},
      {"measurement": "cell count", "setting": "[4]", "value": "0.29 10^6 cells/mL"},
      {"measurement": "Activity", "setting": "[2]", "value": "Active"},
      {"measurement": "cell count", "setting": "[5]", "value": "0.03 10^6 cells/mL"},
      {"measurement": "cell count", "setting": "[6]", "value": "1.67 10^6 cells/mL"},
      {"measurement": "Activity", "setting": "[7]", "value": 95, "unit": "%"},
      {"measurement": "Activity", "setting": "[3]", "value": "Active"},
      {"measurement": "cell count", "setting": "[8]", "value": "0.04 10^6 cells/mL"}
    ]},
    {"smiles": "NC(CO)(CO)CCCCCCCCCCc1ccccc1", "values": [
      {"measurement": "Activity", "setting": "[1]", "value": "Active"},
      {"measurement": "Activity", "setting": "[2]", "value": "Active"},
      {"measurement": "Activity", "setting": "[3]", "value": "Active"}
    ]},
    {"smiles": "NC(CO)(CO)CCCCCCCCCCc1ccc(F)cc1", "values": [
      {"measurement": "Activity", "setting": "[1]", "value": "Active"},
      {"measurement": "Activity", "setting": "[2]", "value": "Active"},
      {"measurement": "Activity", "setting": "[3]", "value": "Active"}
    ]},
    {"smiles": "NC(CO)(CO)CCCCCCCCCCc1ccc(S(F)(F)(F)(F)F)cc1", "values": [
      {"measurement": "Activity", "setting": "[1]", "value": "Active"},
      {"measurement": "Activity", "setting": "[2]", "value": "Active"},
      {"measurement": "Activity", "setting": "[3]", "value": "Active"}
    ]}
  ]
}
